{
  "source": "patent US11512068B2",
  "about": "“Process for the preparation of crystalline ridinilazole using acid addition salts” (Sandoz AG, priority 2017, dated 2022)",
  "origin": "cited, not measured here",
  "key": {"[1]": {"test_system": "Clostridium difficile", "settings": "treatment with ridinilazole"}, "[2]": {"settings": "phase 1 trial, oral"}, "[3]": {"test_system": "clostridia", "settings": "phase 1 trial, oral"}, "[4]": {"test_system": "Clostridium difficile"}},
  "data": [
    {"smiles": "c1cc(-c2nc3ccc(-c4ccc5nc(-c6ccncc6)[nH]c5c4)cc3[nH]2)ccn1", "note": "[Ridinilazole, 5,5′bis[2-(4-pyridinyl)-1H-benzimidazole]]", "values": [
      {"measurement": "toxin production", "setting": "[1]", "result": "decreased toxin production"},
      {"measurement": "tolerability", "setting": "[2]", "result": "well tolerated"},
      {"measurement": "selectivity for clostridia over other faecal bacteria", "setting": "[3]", "result": "specifically targets clostridia whilst sparing other faecal bacteria"},
      {"measurement": "post-antibiotic effect", "setting": "[4]", "result": "prolonged post-antibiotic effect"}
    ]}
  ]
}
